US9414579B2, “Systems and methods for controlling pest infestation of a woody plant” (Dow AgroSciences LLC, priority 2013, dated 2016)

Legend:
[1] = system: Coptotermes spp.; test: Example I: field test on a 100 hectare oil palm plot, Quadrants A-D, infested trees inspected monthly for 24 months; type: in vivo; conditions: liquid fipronil 2.5 ml/5 L drenching
Experimental: Testing was performed to determine the effect in the field of an extruded composite member in the form of Recruit® HD, further details of which are provided in U.S. patent application Ser. No. 12/004,655, on Coptotermes spp. More particularly, a 100 hectare plot of oil palm trees was divided into four quadrants: Quadrants A, B, C and D. The palm oil trees in each of Quadrants A-D were investigated for the presence of termite activity or infestation, and the affected trees were marked accordingly. The affected trees in Quadrants A and C were each treated with liquid fipronil (2.5 ml/5 L drenching), and the affected trees in Quadrants B and D were each treated with a 50 g extruded composite member in the form of Recruit® HD (0.5% hexaflumuron) in a manner similar to that described above in connection with system 60. For Quadrants B and D, consumption of the extruded composite members was investigated and recorded accordingly. Post-treatment inspection of the affected trees was performed on a monthly basis for 24 months following initiation of treatment.
The results of the treatments in Quadrants A-D on a monthly basis over a 24 month period of time following initial treatment are graphically illustrated in FIG. 6.

[2] = system: Coptotermes spp.; test: Example II: field test on a 60 hectare oil palm plot divided into two plots, infested trees inspected monthly for 24 months; type: in vivo; conditions: for Infested Trees: plot 1 (4461 trees) liquid fipronil 2.0 ml/5 L drenching, plot 2 (4432 trees) 50 g Recruit HD per affected tree; for % Infestation: cumulative results, plot 1 fipronil, plot 2 Recruit HD
Experimental: Testing was performed to determine the effect in the field of an extruded composite member in the form of Recruit® HD, further details of which are provided in U.S. patent application Ser. No. 12/004,655, on Coptotermes spp. More particularly, a 60 hectare plot of oil palm trees was divided into two plots. The palm oil trees in each of the plots were investigated for the presence of termite activity or infestation, and the affected trees were marked accordingly. The affected trees in plot 1 were each treated with liquid fipronil (2.0 ml/5 L drenching), and the affected trees in plot 2 were each treated with a 50 g extruded composite member in the form of Recruit® HD (0.5% hexaflumuron) in a manner similar to that described above in connection with system 60. For plots 1 and 2, consumption of the extruded composite members was investigated and recorded accordingly. Post-treatment inspection of the affected trees was performed on a monthly basis for 24 months following initiation of treatment.

## N#Cc1nn(-c2c(Cl)cc(C(F)(F)F)cc2Cl)c(N)c1[S+]([O-])C(F)(F)F (stereo not drawn) [Fipronil, fipronil]
[1]; Quadrant A (2246 trees), 0 months (before treatment)
  Infested Trees: 29
[1]; Quadrant A (2246 trees), 7 months
  Infested Trees: 30
[1]; Quadrant A (2246 trees), 12 months
  Infested Trees: 29
[1]; Quadrant A (2246 trees), 18 months
  Infested Trees: 20
[1]; Quadrant A (2246 trees), 24 months
  Infested Trees: 13
[1]; Quadrant C (2215 trees), 0 months (before treatment)
  Infested Trees: 71
[1]; Quadrant C (2215 trees), 7 months
  Infested Trees: 45
[1]; Quadrant C (2215 trees), 12 months
  Infested Trees: 51
[1]; Quadrant C (2215 trees), 18 months
  Infested Trees: 40
[1]; Quadrant C (2215 trees), 24 months
  Infested Trees: 22
[2]; 0 months (before treatment)
  Infested Trees: 100
[2]; 1 year
  % Infestation: 2.31%
[2]; 2 year
  % Infestation: 1.76%
[2]; 7 months
  Infested Trees: 75
[2]; 12 months
  Infested Trees: 80
[2]; 18 months
  Infested Trees: 60
[2]; 24 months
  Infested Trees: 35
[2]; Pre-Treatment
  % Infestation: 2.24%
